Laboratory results published in PMC5648829 (Scientific Reports, 2017).
Where a SMILES comes first, the peptide text is derived from it.

How the values were obtained:
sputum neutrophils = system: sputum neutrophils; design: method as in PMID 27806191; details: cystic fibrosis patients; cited from earlier work
[1] = system: asthma bronchial allergen challenge; design: method as in PMID 25018015; details: asthma bronchial allergen challenge trial; cited from earlier work
[2] = PGP degradation assay in BALF ex-vivo (LC-MS/MS); assay type: in vitro ADME, mouse
Description: 200 µl of BALF were spiked with PGP and Ac-PGP at the final concentration of 10 nM. […] After incubation, samples were filtered (Amicon Ultra-0.5, Membrane Ultracel-30, PMNL 30 kD) by centrifugation (3 min at 10,000 × g). Filtered samples were transferred to vials for liquid chromatography tandem mass spectrometry (LC-MS/MS) analysis. The LC system consisted of an Acquity UPLC I-Class interfaced with a Xevo-TQS triple quadruple MS (Waters). […] PGP was monitored with MRM m/z transitions of 270.1 > 173.1 (quantifier) and 270.1 > 70.1 and 270.1 > 116.1 (qualifiers). Ac-PGP was monitored with m/z transitions of 312.2 > 112.1 (quantifier) and 312.2 > 116.1 and 312.2 > 140.1 (qualifiers).

[3] = system: neutrophil influx into dorsal air-pouch; assay: Air-pouch model of acute inflammation; assay type: in vivo, mouse; details: for PGP concentration in air-pouch exudate: PGP 500 μg/mouse
Description: Air-pouches were formed by subcutaneous injection of 5 ml air through a 0.22 μm filter on the backs of female LTA4H KO or wt mice. The patency of the cavity was maintained by a further 3 ml injection on day 3. Six days after the initial injection of air, LPS at 10 µg/animal and PGP, Ac-PGP, at different concentrations up to 500 µg/animal were injected into the air pouches. […] An incision was made on the top of the pouch and the injected lavage fluid pipetted out into an eppendorf tube. An aliquot of air pouch lavage fluid was used to determine total cell counts on an Advia 120® Haematology Analyser. To determine differential cell counts, cytospins were prepared for all pouch fluid samples. The cytospins were air dried prior to staining with DiffQwik differential staining solutions. Differential cell counts were performed manually (x200 magnification) to determine the percentage of neutrophil and non-neutrophil cell populations in each sample.

[4] = system: neutrophil influx into lungs; assay: Stimulation of lungs with PGP and Ac-PGP (intra-tracheal); assay type: in vivo, mouse; details: PGP up to 500 μg intra-tracheal, wt or LTA4H KO mice, 24 h
Description: PGP or Ac-PGP in increasing doses up to 500 ug per mouse were applied by intra-tracheal administration in 50 µl PBS to female LTA4H KO or wild type mice. After 24 h, the mice were euthanized and BALF was collected by cannulating the trachea with a catheter and lavaging the lungs 3 times with 0.4 ml cold PBS. The lavage fluid was then centrifuged and the cells analyzed by flow cytometry. Cell supernatants were used for analysis of MPO and cytokine content in BALF.

human neutrophils [5] = assay: Human neutrophil shape change assay; assay type: cell-based; details: up to 100 μM
Description: Neutrophils were purified by Ficoll density gradient centrifugation from human blood and incubated with graded concentrations of PGP, Ac-PGP or the known neutrophil chemoattractant GROα in assay buffer containing BSA (0.1%) in PBS for 10 min at 37 °C, 5% CO2 and 90% humidity. Cells were then fixed and shape change analyzed by flow cytometry.

human neutrophils [6] = assay: Human neutrophil chemotaxis assay; assay type: cell-based; details: graded concentrations up to mM range, 90 min at 37 °C
Description: Purified human neutrophils were labeled with calcein-AM (Fluka, Buchs, Switzerland). Test compounds (PGP, Ac-PGP, RTR, and Ac-RTR) or IL-8 (Sigma) as positive chemoattractant control were diluted in RPMI containing BSA (0.1%) and added at graded concentrations into the wells of a 96-well ChemoTX plate (3.2 mm diameter, 5 µm pore size; NeuroProbe, Gaithersburg, MD). Labeled cells (50,000 per well) were added onto the filters above the wells that received the test compounds. Plates were incubated for 90 min at 37 °C. The filters were removed and fluorescence in the receiving wells was measured using a SpectraMAX Gemini EM instrument (Molecular Devices, Sunnyvale, CA; λex = 485 nm; λem = 538 nm). The chemotactic index was measured as the ratio of fluorescence in the test wells and in control (buffer only) wells.

human neutrophils [7] = assay: Human neutrophil calcium flux assay; assay type: cell-based; details: up to mM concentrations
Description: Purified human neutrophils were incubated in Calcium 5 loading buffer (Molecular Devices) containing Probenecid (2.5 mM, SIGMA) at 37 °C, 5% CO2 and 90% humidity for 1 h. 20 µl of the cell suspension were then transferred to a black 384-well plate with clear bottom and centrifuged at 100 g for 4 min. Test compounds PGP, Ac-PGP and fMLP (SIGMA) were prepared at graded concentrations in HBSS containing HEPES (20 mM). Fluorescence was measured in FLIPR Tetra reader (Molecular Devices) every second before and after the addition of 5 µl of compounds dilutions. The calculated F index is the difference between the maximum signal and the average baseline signal, divided by the average baseline signal.

human neutrophils [8] = assay: ROS generation in human neutrophils; assay type: cell-based; details: up to mM concentrations
Description: Purified human neutrophils were plated in RPMI + FCS (5%) in 96-well cell culture plates (100,000 cells/well). Dihydrorhodamine 123 (SIGMA) was added at a final concentration of 3 µM together with PGP, Ac-PGP and fMLP (SIGMA) at graded concentrations and incubated for 30 min at 37 °C, 5% CO2 and 90% humidity. […] Amount of generated ROS is given as GMFI (sample)/GMFI (unstimulated control).

human neutrophils [9] = system: human neutrophils; design: method as in earlier work; details: ref 27 Haddox et al.; read-out: EC50 chemotaxis of human neutrophils; cited from earlier work
LTA4H = target: T1, LTA4H (Homo sapiens, UniProt P09960); assay: PGP degradation assay in human blood; assay type: cell-based; design: Fresh blood was collected in heparinized tubes by venipuncture from volunteers; from tissue; host or cells: fresh human whole blood from volunteers, diluted 1:3 in RPMI; details: untreated and LPS stimulated blood, 24 h at 37 °C
T1 sequence (P09960 1-611): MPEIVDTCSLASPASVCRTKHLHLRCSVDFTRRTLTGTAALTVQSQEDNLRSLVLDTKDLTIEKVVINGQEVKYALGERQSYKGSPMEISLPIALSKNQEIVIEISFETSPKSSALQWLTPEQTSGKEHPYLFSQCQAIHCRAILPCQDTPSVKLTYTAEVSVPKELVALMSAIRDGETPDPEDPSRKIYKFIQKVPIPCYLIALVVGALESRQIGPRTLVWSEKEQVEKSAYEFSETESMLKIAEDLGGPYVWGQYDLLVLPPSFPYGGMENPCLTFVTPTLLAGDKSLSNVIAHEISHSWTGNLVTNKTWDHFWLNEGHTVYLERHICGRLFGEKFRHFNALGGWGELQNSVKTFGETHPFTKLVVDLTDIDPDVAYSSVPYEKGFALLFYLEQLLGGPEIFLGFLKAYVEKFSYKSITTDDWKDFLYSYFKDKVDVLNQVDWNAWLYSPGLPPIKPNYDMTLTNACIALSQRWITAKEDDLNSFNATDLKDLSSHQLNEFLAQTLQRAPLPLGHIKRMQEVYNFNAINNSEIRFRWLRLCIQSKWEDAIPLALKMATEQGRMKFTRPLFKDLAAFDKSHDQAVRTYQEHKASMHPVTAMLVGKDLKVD
Description: Fresh blood was collected in heparinized tubes by venipuncture from volunteers from the Novartis Blood Donor Center, Basel. The blood was diluted 1:3 in Roswell Park Memorial Institute (RPMI) containing HEPES (0.025 M). […] PGP and LPS were added at final concentrations of 2 µg/ml each and incubated up to 24 h at 37 °C, 5% CO2 and 90% humidity before samples were collected for LC-MS/MS analysis.

In the case of `O=C(O)c1ccc(CN2C[C@@H]3C[C@H]2CN3Cc2ccc(Oc3ccc(-c4ncco4)cc3)cc2)cc1` [Acebilustat], the “reduction of sputum neutrophils” value (sputum neutrophils) is listed as 65%.

In the case of `CC(=O)NC1C[C@H]2CC[C@@H](C1)N2Cc1ccc(Oc2nc3ncccc3s2)cc1` (some centres unmarked) [JNJ-40929837], the clinical efficacy [1] is given as “did not show efficacy”.

In the case of `O=C(NCC(=O)N1CCC[C@H]1C(=O)O)[C@@H]1CCCN1` [PGP, H-Pro-Gly-Pro] (H-Pro-Gly-Pro-OH), the “PGP level after spiking into BALF” value ([2]; BALF from LPS challenged wt mice, PGP 10 nM, 4 h at 37 °C) is reported as “undetectable levels”, the PGP still present ([2]; exudate (BALF) of LTA4H KO mice, after 24 h) is reported as “over 80%” and the “cell influx in air-pouch” value ([3]; 500 μg PGP, LTA4H KO mice, 24 h) is reported as “failed to detect significant cell influx”. For the same molecule, the “PGP concentration in air-pouch exudate” value ([3]; LTA4H KO mice, 1 h after injection) was “approximately 1 µg/ml”, the “PGP concentration in air-pouch exudate” value ([3]; LTA4H KO mice, 4 h and 24 h after injection) was “no PGP was detectable” and the “cell numbers (neutrophil influx) in air-pouch” value ([3]; PGP up to 500 μg per air-pouch, Balb/c mice, 4 h) was “did not show elevated cell numbers compared to saline control”. For the same molecule, the “neutrophil influx in air-pouch” value ([3]; mice pre-treated with 30 mg/kg DG-051 before PGP injection, 4 h) was “unable to detect neutrophil influx”, the “influx of neutrophils by flow cytometry of BALF cells” value [4] was “neither able to detect influx of neutrophils” and the “myeloperoxidase (MPO) in BALF” value ([4]; versus PBS control) was “nor elevation of myeloperoxidase (MPO) beyond the PBS control”. The “neutrophil shape change response” value (human neutrophils [5]) was “no response”, the neutrophil chemotaxis (human neutrophils [6]) was “no significant increase in chemotaxis” and the “induction of Ca2+ flux” value (human neutrophils [7]) was “neither PGP nor Ac-PGP induced”. The ROS production (human neutrophils [8]) was “neither PGP nor Ac-PGP induced”, the EC50 (human neutrophils [9]) was 15 mM and the “Degradation of PGP in human blood” value (LTA4H) was “complete disappearance”.
